Like-named read-outs stand apart in the source and are kept apart here.
How the values were obtained:
Assay type in all cases: cell-based
[1] = test system: bloodstream-form trypanosome T. brucei brucei 427 strain; assay: Trypanosoma brucei brucei high-throughput screening assay (resazurin)
Description: Example 105. Trypanosoma brucei brucei High-Throughput Screening Assay Procedure
All experiments were conducted with the bloodstream-form trypanosome T. brucei brucei 427 strain obtained from Seattle Biomedical Research Institute (Seattle, Wash.). Parasites were cultured in T-25 vented cap flasks and kept in humidified incubators at 37° C. and 5% CO2. The parasite culture media was complete HMI-9 medium containing 10% FBS, 10% Serum Plus medium and penicillin/streptomycin. To ensure log growth phase, trypanosomes were sub-cultured at appropriate dilutions every 2-3 days. Approximately 50 microliters of log phase cultures were diluted 1:10 in HMI-9 and 10 μL of the diluted culture was removed and counted using a hemocytometer to determine parasite concentration. Parasites were diluted by addition of an appropriate volume of HMI-9 to achieve a final parasite concentration of 2×10^5/mL. Compounds of the invention to be tested were serially diluted in DMSO and 0.5 μL added to 49.5 μL HMI-9 in triplicate 96-well plates using a Biomek NX liquid handler. Parasites from the diluted stock were added to each well (50 μL) using a Multidrop 384 dispenser to give a final concentration of 1.0×10^5/ml parasites in […] for DMSO. Trypanosomes were incubated with compounds for 72 hrs at 37° C. with 5% CO2. Resazurin (20 μL of 12.5 mg/ml stock) from Sigma-Aldrich was added to each well and plates were incubated for an additional 2-4 hrs. Assay plates were read using an EnVision plate reader at an excitation wavelength of 544 nm and emission of 590 nm. Triplicate data points were averaged to generate sigmoidal dose response curve and determine IC50 values using XLfit curve fitting software from IDBS (Guildford, UK).

[2] = test system: IL3000 T. congolense (drug sensitive) strain; assay: In vitro Alamar Blue 72 h drug sensitivity assay for T. congolense
Summary of the method: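 Bloodstream-form trypanosomes in HMI medium with 20% bovine serum, exposed to compound for 69 h at 34 °C, 5% CO2, then resazurin for 3 h more. Fluorescence read at 536/588 nm. IC50 from 11-point sigmoidal dose-response curves, at least three independent runs.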

[3] = test system: bloodstream forms of T. b. rhodesiense STIB 900; assay: T. brucei rhodesiense STIB 900 growth inhibition assay; conditions: Trypanosoma brucei, 72 h
Summary of the method: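 Bloodstream-form STIB 900 (10^4/well) were cultured in supplemented MEM with 15% horse serum and compound (90 to 0.123 μg/ml, 3-fold steps) for 72 h at 37 °C, 5% CO2. Viability was read by Alamar Blue fluorescence (ex 536/em 588 nm) after a further 2-4 h.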

[4] = test system: L. infantum MHOM/MA(BE)/67 amastigotes in primary peritoneal mouse macrophages; assay: Leishmania infantum intracellular amastigote assay in mouse macrophages; conditions: Macrophage, 120 h
Summary of the method: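 Amastigotes harvested from infected hamster spleen infected primary peritoneal mouse macrophages (5×10^5 amastigotes/well, 2 h, 37 °C). Compounds then present 5 d at 37 °C, 5% CO2. Parasite burden counted by microscopy after Giemsa staining, as % of untreated controls; IC50 from sigmoidal variable-slope fit.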

[5] = test system: Trypanosoma brucei rhodesiense STIB 900 strain; assay: Trypanosoma brucei rhodesiense STIB 900 screening assay; conditions: STIB 900 bloodstream forms, 72 h, Alamar Blue, protocol of Example 114, read-out: Swiss TPH T b rhodesiense IC50
Description: Example 114. Trypanosoma brucei rhodesiense STIB 900 Screening Assay Procedure
The Trypanosoma brucei rhodesiense STIB 900 strain was isolated in 1982 from a human patient in Tanzania and after several mouse passages cloned and adapted to axenic culture conditions (Baltz, et al., EMBO Journal 4: 1273-1277 (1985); Thuita, et al., Acta Tropica 108: 6-10 (2008)). Minimum Essential Medium (50 μL) supplemented with 25 mM HEPES, 1 g/L additional glucose, 1% MEM non-essential amino acids (100×), 0.2 mM 2-mercaptoethanol, 1 mM Na-pyruvate and 15% heat inactivated horse serum was added to each well of a 96-well microtiter plate. Serial drug dilutions of seven 3-fold steps covering a range from 90 to 0.123 μg/mL were prepared. Then 10^4 bloodstream forms of T. b. rhodesiense STIB 900 in 50 μL was added to each well and the plate incubated at 37° C. under a 5% CO2 atmosphere for 72 h. 10 μL Alamar Blue (resazurin, 12.5 mg in 100 mL double-distilled water) was then added to each well and incubation continued for a further 2-4 h (Raz, et al., Acta Tropica 68: 139-47 (1997)). Then the plates were read with a Spectramax Gemini XS microplate fluorometer (Molecular Devices Corporation, Sunnyvale, Calif., USA) using an excitation wavelength of 536 nm and an emission wavelength of 588 nm. Data were transferred into the graphic program Softmax Pro (Molecular Devices), which calculated IC50 values.

[6] = test system: TdTomato-modified T. cruzi (CL strain) in Vero cells; assay: In vitro IC50 measurement of T. cruzi amastigote killing using TdTomato-modified T. cruzi (CL strain); conditions: Trypanosoma cruzi, 72 h, fluorescence, read-out: IC50: I Org. amastigote Growth T. cruzi CL TdTomato, 3 d
Summary of the method: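 Vero cells were infected with tdTomato-expressing CL-strain parasites and dosed at 5 uM–5 nM. Fluorescence (ex 544/em 612 nm) was read at day 0 and again after 72 h at 37 °C, with day 0 values subtracted. IC50 and IC90 came from nonlinear regression.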

[7] = 72 h, read-out: IC50: I Org. Growth T. brucei brucei SBRI 427, 3 d [uM]
[8] = bloodstream form, 72 hrs incubation, resazurin, read-out: IC50: I Org. Growth T. brucei brucei SBRI 427, 3 d
[9] = Trypanosoma congolense; bloodstream form, 69 h + 3 h resazurin, 34° C.; classes A-C; read-out: IC50: I Org. Growth T. congolense IL-3000, 3 d
[10] = bloodstream forms, Alamar Blue, protocol of Example 110, read-out: IC50: I Org. Growth T. brucei rhodesiense STIB 900, 3 d
[11] = amastigotes in primary peritoneal mouse macrophages, 5 d, Giemsa staining, read-out: Inhibition of Organism Growth in Leishmania infantum MHOM/MA/BE/67, 5 d
[12] = Trypanosoma congolense; read-out: inhibition of T. congolense IL-3000 growth at a concentration of 1.0 μM (classes D, E)
[13] = read-out: IC50: I Org. Growth T. brucei rhodesiense STIB 900, 3 d [uM]
[14] = read-out: Inhibition of Organism Growth in Leishmania infantum MHOM/MA/BE/67, 5 d [uM]

For `O=C(Nc1ccc2c(c1)B(O)OC2)c1nc(-c2cccnc2)n[nH]1` [Example 98, N-(1-hydroxy-1,3-dihydrobenzo[c][1,2]oxaborol-6-yl)-3-(pyridin-3-yl)-1H-1,2,4-triazole-5-carboxamide], the IC50 [1, 7] was 0.151 to 10 µM.
`Cc1c(C(=O)Nc2ccc3c(c2)B(O)OC3)nnn1-c1ccc(Cl)cc1` [Example 90, 1-(4-chlorophenyl)-N-(1-hydroxy-1,3-dihydrobenzo[c][1,2]oxaborol-6-yl)-5-methyl-1H-1,2,3-triazole-4-carboxamide] gave an IC50 [1, 8] of 0.075 to 0.15 µM.
`Cn1nc(C(=O)Nc2ccc3c(c2)B(O)OC3)nc1-c1ccccn1` [Example 80, N-(1-hydroxy-1,3-dihydrobenzo[c][1,2]oxaborol-6-yl)-1-methyl-5-(pyridin-2-yl)-1H-1,2,4-triazole-3-carboxamide] showed an IC50 [1, 8] of under 0.075 µM, an IC50 [2, 9] of 100 to 300 nM and an IC50 [3, 10] of 0.1 to 0.3 µM. For the same molecule, the IC50 [4, 11] was under 3 µM.
Molecule `Cn1nc(C(=O)Nc2ccc3c(c2)B(O)OC3(C)C)nc1-c1ccccc1` [Example 103, N-(1-hydroxy-3,3-dimethyl-1,3-dihydrobenzo[c][1,2]oxaborol-6-yl)-1-methyl-5-phenyl-1H-1,2,4-triazole-3-carboxamide] has an IC50 [3, 10] of 0.31 to 10 µM, an IC50 [4, 11] of 3 to 19.9 µM and an IC50 [5] of under 100 nM.
For `Cn1nc(-c2ccccc2)nc1C(=O)Nc1ccc2c(c1)B(O)OC2` [Example 96, N-(1-hydroxy-1,3-dihydrobenzo[c][1,2]oxaborol-6-yl)-1-methyl-3-phenyl-1H-1,2,4-triazole-5-carboxamide], the IC50 [1, 8] was 0.151 to 10 µM and the inhibition at 1 µM [2, 12] was under 75%.
Work on `COc1cccc(-n2nnc(C(=O)Nc3ccc4c(c3)B(O)OC4)c2C)n1` [Example 65, N-(1-hydroxy-1,3-dihydrobenzo[c][1,2]oxaborol-6-yl)-1-(6-methoxypyridin-2-yl)-5-methyl-1H-1,2,3-triazole-4-carboxamide] yielded an IC50 [2, 9] of under 100 nM, an IC50 [3, 10] of under 0.1 µM and an IC50 [4, 11] of under 3 µM. The IC50 [6] was under 600 nM and the IC50 [5] was under 100 nM.
With `O=C(Nc1ccc2c(c1)B(O)OC2)c1nc(-c2ccccn2)n[nH]1` [Example 94, N-(1-hydroxy-1,3-dihydrobenzo[c][1,2]oxaborol-6-yl)-3-(pyridin-2-yl)-1H-1,2,4-triazole-5-carboxamide] the IC50 [1, 7] was under 0.075 µM, the inhibition at 1 µM ([2]; Trypanosoma congolense, read-out: inhibition of T. congolense IL-3000 growth at a concentration of 1.0 μM (classes D, E)) was over 75% and the IC50 [3, 13] was under 0.1 µM. The IC50 [4, 14] was 3 to 19.9 µM.
In the case of `O=C(Nc1ccc2c(c1)B(O)OC2)c1nc(-c2ccccc2)n[nH]1` [Example 101, N-(1-hydroxy-1,3-dihydrobenzo[c][1,2]oxaborol-6-yl)-3-phenyl-1H-1,2,4-triazole-5-carboxamide], the IC50 [1, 8] is reported as 0.075 to 0.15 µM and the inhibition at 1 µM [2, 12] is reported as over 75%.
With `Cc1cccc(-n2cc(C(=O)Nc3ccc4c(c3)B(O)OC4)nn2)n1` [Example 57, N-(1-hydroxy-1,3-dihydrobenzo[c][1,2]oxaborol-6-yl)-1-(6-methylpyridin-2-yl)-1H-1,2,3-triazole-4-carboxamide] the IC50 [2, 9] was under 100 nM, the IC50 [3, 10] was under 0.1 µM and the IC50 [4, 11] was under 3 µM. For the same molecule, the IC50 [6] was under 600 nM and the IC50 [5] was under 100 nM.
`Cc1cccc(-n2nnc(C(=O)Nc3ccc4c(c3)B(O)OC4)c2C)n1` [Example 81, N-(1-hydroxy-1,3-dihydrobenzo[c][1,2]oxaborol-6-yl)-5-methyl-1-(6-methylpyridin-2-yl)-1H-1,2,3-triazole-4-carboxamide] gave an IC50 [2, 9] of under 100 nM, an IC50 [3, 10] of 0.1 to 0.3 µM and an IC50 [4, 11] of 3 to 19.9 µM. The IC50 [6] was 1100 to 10000 nM and the IC50 [5] was 100 to 250 nM.
Molecule `Cn1nc(C(=O)Nc2ccc3c(c2)B(O)OC3)nc1-c1ccccc1` [Example 102, N-(1-Hydroxy-1,3-dihydrobenzo[c][1,2]oxaborol-6-yl)-1-methyl-5-phenyl-1H-1,2,4-triazole-3-carboxamide] has an IC50 [1, 8] of 0.075 to 0.15 µM, an IC50 [3, 10] of under 0.1 µM and an IC50 [4, 11] of under 3 µM.
For `Cn1nc(-c2ccc(F)cc2)nc1C(=O)Nc1ccc2c(c1)B(O)OC2` [Example 97, 3-(4-fluorophenyl)-N-(1-hydroxy-1,3-dihydrobenzo[c][1,2]oxaborol-6-yl)-1-methyl-1H-1,2,4-triazole-5-carboxamide], the IC50 [1, 8] was 0.151 to 10 µM and the inhibition at 1 µM [2, 12] was under 75%.
`O=C(Nc1ccc2c(c1)B(O)OC2)c1cn(-c2cccnc2)nn1` [Example 63, N-(1-hydroxy-1,3-dihydrobenzo[c][1,2]oxaborol-6-yl)-1-(pyridin-3-yl)-1H-1,2,3-triazole-4-carboxamide] was tested, and the IC50 [2, 9] was under 100 nM, the IC50 [3, 10] was 0.1 to 0.3 µM and the IC50 [4, 11] was 20 to 100 µM. It also gave an IC50 [6] of 1100 to 10000 nM and an IC50 [5] of 100 to 250 nM.
With `Cn1nc(-c2ccccn2)nc1C(=O)Nc1ccc2c(c1)B(O)OC2` [Example 95, N-(1-hydroxy-1,3-dihydrobenzo[c][1,2]oxaborol-6-yl)-1-methyl-3-(pyridine-2-yl)-1H-1,2,4-triazole-5-carboxamide] the IC50 [1, 7] was 0.151 to 10 µM.
For `Cn1nc(C(=O)Nc2ccc3c(c2)B(O)OC3)nc1-c1ccc(F)cc1` [Example 100, 5-(4-Fluorophenyl)-N-(1-hydroxy-1,3-dihydrobenzo[c][1,2]oxaborol-6-yl)-1-methyl-1H-1,2,4-triazole-3-carboxamide], the IC50 [1, 8] was 0.075 to 0.15 µM.
`O=C(Nc1ccc2c(c1)B(O)OC2)c1nc(-c2ccc(F)cc2)n[nH]1` [Example 99, 3-(4-Fluorophenyl)-N-(1-hydroxy-1,3-dihydrobenzo[c][1,2]oxaborol-6-yl)-1H-1,2,4-triazole-5-carboxamide] showed an IC50 [1, 7] of under 0.075 µM, an IC50 [3, 13] of 0.1 to 0.3 µM and an IC50 [4, 14] of under 3 µM.
